In brackets after ≈: the same amount, converted by molar mass.
Legend:
[1] = test system: Acinetobacter baumanii/haemolyticus; experiment: MIC determination, A. baumanii/haemolyticus; assay type: cell-based; conditions: Acinetobacter baumannii; multidrug-resistant clinical isolate; * = arithmetic mean of 2-6 MIC determinations; read-out: MIC (ug/mL) A. baumanii/haemolyticus
Protocol: (§1) MIC determinations: The in vitro antibacterial activity of compounds described in the Examples was evaluated by minimum inhibitory concentration (MIC) testing according to Clinical and Laboratory Standards Institute (CLSI, formerly NCCLS) guidelines. See: Clinical and Laboratory Standards Institute. Methods for Dilution Antimicrobial Susceptibility Tests for Bacteria that Grow Aerobically; Approved Standard-Seventh Edition. CLSI document M7-A7 [ISBN 1-56238-587-9]. Clinical and Laboratory Standards Institute, 940 West Valley Road, Suite 1400, Wayne, Pa. 19087-1898 USA, 2006; also Clinical and Laboratory Standards Institute. Performance Standards for Antimicrobial Susceptibility Testing; Eighteenth Informational Supplement. CLSI document M100-S18 [ISBN1-56238-653-0]. Clinical and Laboratory Standards Institute.
(§2) The following bacterial strains were used:
Acinetobacter baumanii/haemolyticus: Multidrug-resistant clinical isolate;

Enterobacter aerogenes = experiment: MIC determination, E. aerogenes; assay type: cell-based; conditions: Klebsiella aerogenes; quinolone-resistant, ESBL-expressing clinical isolate; * = arithmetic mean of 2-6 MIC determinations; read-out: MIC (ug/mL) E. aerogenes
Protocol: as §1, §2
Enterobacter aerogenes: Quinolone-resistant isolate, expresses extended-spectrum beta-lactamases (ESBL), clinical isolate;

Klebsiella pneumoniae = experiment: MIC determination, K. pneumoniae; assay type: cell-based; conditions: ciprofloxacin-resistant, ESBL-expressing clinical isolate, * = arithmetic mean of 2-6 MIC determinations, read-out: MIC (ug/mL) K. pneumoniae
Protocol: as §1, §2
Klebsiella pneumoniae: Ciprofloxacin-resistant isolate, expresses extended-spectrum beta-lactamases (ESBL), clinical isolate;

Escherichia coli EC-1 = experiment: MIC determination, E. coli EC-1; assay type: cell-based; conditions: EC1, EC-1: VOGEL, * = arithmetic mean of 2-6 MIC determinations, read-out: MIC (ug/mL) E. coli EC-1
Protocol: as §1, §2
Escherichia coli EC-1: VOGEL;

P. aeruginosa PAO280 = experiment: MIC determination, P. aeruginosa PAO280; assay type: cell-based; conditions: Pseudomonas aeruginosa, PAO280, read-out: MIC (ug/mL) P. aeruginosa PAO280
Protocol: as §1, §2
Pseudomonas aeruginosa PA0280: lacks efflux pumps MexAB-oprM, MexXY and MexZ

P. aeruginosa UI-18 = experiment: MIC determination, P. aeruginosa UI-18; assay type: cell-based; conditions: Pseudomonas aeruginosa, UI18; wild-type; * = arithmetic mean of 2-6 MIC determinations; read-out: MIC (ug/mL) P. aeruginosa UI-18
Protocol: as §1, §2
P. aeruginosa UI-18: Wild-type;

[2] = test system: Staphylococcus aureus ATCC 29213; experiment: MIC determination, S. aureus ATCC 29213; assay type: cell-based; conditions: ATCC29213, CLSI quality control reference strain, * = arithmetic mean of 2-6 MIC determinations, read-out: MIC (ug/mL) S. aureus ATCC 29213
Protocol: as §1, §2
Staphylococcus aureus ATCC 29213: CLSI quality control reference strain; and […]

[3] = molecular target: T1, Pseudomonas aeruginosa LpxC enzyme (Pseudomonas aeruginosa, UniProt P47205); experiment: IC50 assay, LpxC enzyme from P. aeruginosa; assay type: biochemical; conditions: 0.5 nM enzyme, 25° C., pH 8.0, 20 min; ** = average of 2-8 assays
T1 construct: made in house; host or cells: E. coli
T1 sequence (P47205 1-303): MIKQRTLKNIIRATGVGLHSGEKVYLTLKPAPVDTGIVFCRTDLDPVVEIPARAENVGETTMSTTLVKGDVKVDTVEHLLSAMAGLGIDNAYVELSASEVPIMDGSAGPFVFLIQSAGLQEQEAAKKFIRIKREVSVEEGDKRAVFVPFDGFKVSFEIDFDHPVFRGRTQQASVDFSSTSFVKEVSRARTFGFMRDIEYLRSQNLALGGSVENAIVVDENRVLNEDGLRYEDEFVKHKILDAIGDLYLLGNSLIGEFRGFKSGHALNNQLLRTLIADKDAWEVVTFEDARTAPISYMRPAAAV
Protocol: IC50 assay, LpxC enzyme from P. aeruginosa: IC50 determination in the LpxC enzyme assay was carried out in a similar manner to that described by S. A. Hyland et al., J. Bacteriology 1997, 179, 2029-2037. [See also T. Kline et al., J. Medicinal Chemistry 2002, 45, 3112-3129.] Briefly, Pseudomonas aeruginosa LpxC enzyme (0.5 nM) purified from E. coli-overexpressing bacteria was incubated at 25° C. in a final volume of 25 ul containing 0.5 uM UDP-3-O—(R-3-hydroxydecanoyl)-N—[^3H-acetyl]glucosamine (B. D. Maxwell and J. C. Bronstein, J. Labeled Compounds and Radiopharmaceuticals 2005, 48, 1049-1054), 1 mg/ml BSA, and 50 mM sodium phosphate buffer, pH 8.0 in the presence and absence of inhibitor compound. At the end of 20 min, 90 ul of a pre-mixed 3% suspension of activated charcoal in 100 mM sodium acetate, pH 7.5, was added to stop the enzyme reaction. The contents of the well were transferred to a filter plate and filtered, and an aliquot of the filtrate was quantitated by liquid scintillation spectrometry. A no-enzyme control was subtracted in order to eliminate background counts.

`C[C@@](OCc1ccc(-c2ccccc2)cc1)(C(=O)NO)[C@@H](O)C1CC1` [Example 15, (2S,3S)-2-(biphenyl-4-ylmethoxy)-3-cyclopropyl-N,3-dihydroxy-2-methylpropanamide] was tested, and the MIC [1] was > 64 µg/mL, the MIC (Enterobacter aerogenes) was > 64 µg/mL and the MIC (Klebsiella pneumoniae) was > 64 µg/mL. For the same compound, the MIC (Escherichia coli EC-1) was > 64 µg/mL, the MIC (P. aeruginosa PAO280) was 32 µg/mL (≈ 93.7 µM) and the MIC (P. aeruginosa UI-18) was > 64 µg/mL. The MIC [2] was > 64 µg/mL and the IC50 [3] was 0.0734 µM.
With `C[C@@](OCc1ccc(-c2ccc(C(F)(F)F)cc2)cc1)(C(=O)NO)[C@@H](O)c1cc(CO)on1` [Example 42, (2S,3S)-N,3-dihydroxy-3-[5-(hydroxymethyl)isoxazol-3-yl]-2-methyl-2-{[4′-(trifluoromethyl)biphenyl-4-yl]methoxy}propanamide] the MIC [1] was 32 µg/mL (≈ 68.6 µM), the MIC (Enterobacter aerogenes) was > 32 µg/mL and the MIC (Klebsiella pneumoniae) was > 32 µg/mL. For the same compound, the MIC (Escherichia coli EC-1) was 16 µg/mL (≈ 34.3 µM), the MIC (P. aeruginosa PAO280) was < 0.06 µg/mL and the MIC (P. aeruginosa UI-18) was 2 µg/mL (≈ 4.29 µM). For the same compound, the MIC [2] was > 32 µg/mL and the IC50 [3] was 0.000372 µM.
`Cc1ccnc(-c2ccc(COC(C)(C(=O)NO)C(=O)NCc3cc(C)on3)cc2)c1` (centres unmarked) [Example 87, N-hydroxy-2-methyl-N′-[(5-methylisoxazol-3-yl)methyl]-2-{[4-(4-methylpyridin-2-yl)benzyl]oxy}malonamide] was tested, and the MIC [1] was > 64 µg/mL, the MIC (Enterobacter aerogenes) was > 64 µg/mL and the MIC (Klebsiella pneumoniae) was > 64 µg/mL. The MIC (Escherichia coli EC-1) was > 64 µg/mL, the MIC (P. aeruginosa PAO280) was 0.25 µg/mL (≈ 0.589 µM) and the MIC (P. aeruginosa UI-18) was 32 µg/mL (≈ 75.4 µM). For the same compound, the MIC [2] was > 64 µg/mL and the IC50 [3] was 0.0023 µM.
`Cc1cc([C@H](O)[C@](C)(OCc2ccc(-c3ccccc3)cc2)C(=O)NO)no1` [Example 23, (2S,3S)-2-(biphenyl-4-ylmethoxy)-N,3-dihydroxy-2-methyl-3-(5-methylisoxazol-3-yl)propanamide] gave an MIC [1] of 4 µg/mL (≈ 10.5 µM), an MIC (Enterobacter aerogenes) of 27 µg/mL (≈ 70.6 µM) and an MIC (Klebsiella pneumoniae) of 8 µg/mL (≈ 20.9 µM). It also gave an MIC (Escherichia coli EC-1) of 4 µg/mL (≈ 10.5 µM), an MIC (P. aeruginosa PAO280) of 0.015 µg/mL (≈ 0.0392 µM) and an MIC (P. aeruginosa UI-18) of 1.75 µg/mL (≈ 4.58 µM). For the same compound, the MIC [2] was > 64 µg/mL and the IC50 [3] was 0.000376 µM.
In the case of `Cc1cc([C@H](O)[C@](C)(OCc2ccc(-c3ccc(F)cc3)cc2)C(=O)NO)no1` [Example 38, (2S,3S)-2-[(4′-fluorobiphenyl-4-yl)methoxy]-N,3-dihydroxy-2-methyl-3-(5-methylisoxazol-3-yl)propanamide], the MIC [1] is reported as 4 µg/mL (≈ 9.99 µM), the MIC (Enterobacter aerogenes) is reported as 64 µg/mL (≈ 160 µM) and the MIC (Klebsiella pneumoniae) is reported as 8 µg/mL (≈ 20 µM). For the same compound, the MIC (Escherichia coli EC-1) was 2 µg/mL (≈ 4.99 µM), the MIC (P. aeruginosa PAO280) was 0.015 µg/mL (≈ 0.0375 µM) and the MIC (P. aeruginosa UI-18) was 1 µg/mL (≈ 2.5 µM). The MIC [2] was > 64 µg/mL and the IC50 [3] was 0.000132 µM.
`Cn1nncc1[C@H](O)[C@](C)(OCc1ccc(-c2ccccc2)cc1)C(=O)NO` [Example 19, (2S,3S)-2-(biphenyl-4-ylmethoxy)-N,3-dihydroxy-2-methyl-3-(1-methyl-1H-1,2,3-triazol-5-yl)propanamide] was tested, and the MIC [1] was > 64 µg/mL, the MIC (Enterobacter aerogenes) was > 64 µg/mL and the MIC (Klebsiella pneumoniae) was > 64 µg/mL. The MIC (Escherichia coli EC-1) was > 64 µg/mL, the MIC (P. aeruginosa PAO280) was 2 µg/mL (≈ 5.23 µM) and the MIC (P. aeruginosa UI-18) was > 64 µg/mL. The MIC [2] was > 64 µg/mL and the IC50 [3] was 0.00256 µM.
In the case of `Cc1cccc(-c2ccc(COC(C)(C(=O)NO)C(=O)NCc3cc(C)on3)cc2)n1` (centres unmarked) [Example 89, N-hydroxy-2-methyl-N′-[(5-methylisoxazol-3-yl)methyl]-2-{[4-(6-methylpyridin-2-yl)benzyl]oxy}malonamide], the MIC [1] is reported as > 64 µg/mL, the MIC (Enterobacter aerogenes) is reported as > 64 µg/mL and the MIC (Klebsiella pneumoniae) is reported as > 64 µg/mL. For the same compound, the MIC (Escherichia coli EC-1) was > 64 µg/mL, the MIC (P. aeruginosa PAO280) was 1 µg/mL (≈ 2.36 µM) and the MIC (P. aeruginosa UI-18) was > 64 µg/mL. The MIC [2] was > 64 µg/mL and the IC50 [3] was 0.0135 µM.
